Results as given in patent publication US9056923B2, “Mimetic peptides derived from collagen type IV and their use for treating angiogenesis- and lymphagiogenesis-dependent diseases” (THE JOHNS HOPKINS UNIVERSITY, priority 2010, dated 2015).
Square brackets hold non-standard residues; d marks the D form. Ends that are not written are not given here. Peptide text beside a SMILES is read from it. AllylGly = C=CC[C@H](N)C(=O)O; Nle = CCCC[C@H](N)C(=O)O; Abu = CC[C@H](N)C(=O)O

Legend:
Assay type in all cases: cell-based, human
HUVEC [1] = experiment: HUVEC tube formation assay on Matrigel; conditions: for Tube formation Inhibition (100 uM): 100 uM peptide; for Activity in Tube formation: Yes/No summary; for inhibition of tube formation: concentration not given
Experimental: The compounds also were tested for their ability to inhibit tube formation, a process critical in angiogenesis. Endothelial cells spontaneously form a network of tubes when plated on extracts of extracellular matrix. This in vitro assay combines aspects of adhesion and migration and it is routinely used in angiogenesis research (Oliveira-Ferrer et al., 2008). The ability to inhibit tube formation is a comprehensive assessment of the anti-angiogenic potential. The protocol was described by Arnaoutova et al. (2009) and it consists of plating HUVEC on top of basement membrane extract and after incubation at 37° C. the cells naturally rearrange themselves in a network of tubes. Thus, 50 μL/well of Matrigel (BD Biosciences, San Jose, Calif.) was plated in a cold 96 well plate and incubated at 37° C. for 30 min for polymerization. 15,000 cells/well were added to the top of the gel and incubated in complete media in the presence or absence of peptide for 19 hours. Images were captured using the CCD Sensicam mounted on a Nikon microscope (Eclipse T-100). Assays were performed in at least two independent replicates and each replicate was performed using three experimental replicates and one image of a randomly chosen field was acquired per well.

HUVEC [2] = experiment: HUVEC migration assay (RT-CIM); conditions: for Migration Inhibition (50 uM): 50 uM peptide; for Activity in Migration: Yes/No summary, active = inhibitory potential greater than 30%; for Migration Inhibition (5 uM): 5 uM peptide
Experimental: The inhibitory potential of the peptides was measured using a real time migration assay system based on electrical impedance (RT-CIM, ACEA Biosciences, CA). CIM 16 well plates (Roche, 05665817001) are composed of a top and bottom chamber separated by a microporous (8 μm) polycarbonate membrane. The membrane was coated with fibronectin (20 μg/mL), and 45,000 cells/well in serum free media with or without peptides were added to the top compartment. Media with chemoattractant (i.e., fully supplemented EBM-2) was added to the bottom compartment of the chamber and the plate was incubated at 37° C. for 20 hours. The sensors integrated on the bottom side of the membrane monitor and continuously record changes in impedance as the cells move through the membrane. The RT-CIM technology allows for easy quantification of cell migration by monitoring the cell index derived from the measured impedances. Assays were performed in at least two independent replicates and each replicate was performed using two experimental duplicates.

HUVEC [3] = conditions: for Activity in Proliferation / Proliferation Inhibition (IC50 in uM) / inhibition of proliferation: HUVEC; for Activity in Proliferation: Yes/No summary; for Proliferation Inhibition (IC50 in uM): summary tables 2-4, 6, 7
Experimental: Several assays were used to test the peptides discussed in the Examples herein. A colorimetric based proliferation assay using WST-1 (Roche, 11644807001) proliferation reagent was carried out using HUVEC cells. 2000 cells/well were plated in 96-well plates and allowed to adhere overnight. On the following day, the media was exchanged with fully supplemented media containing peptides or equivalent DMSO vehicle for the controls. Three days later the media containing the peptides was replaced with serum-free EBM-2 media containing WST-1 reagent and the plates were incubated for four hours as per the manufacturer's recommendations. Changes in color, due to the formazan dye resulted from the cleavage of the tetrazolium salt WST-1 by the mitochondrial succinate-tetrazolium reductase, were read on a Victor V fluorescence plate reader (Perkin Elmer, MA) by measuring the absorbance at 450 nm Dose response curves of percent live cells (in comparison to untreated cells but incubated in complete media with 0.2% DMSO) were created. Assays were performed in at least two independent replicates and each replicate was performed using three experimental triplicates.

HUVEC [4] = conditions: HUVEC; for Adhesion Inhibition (100 uM): 100 uM peptide; for Activity in Adhesion: Yes/No summary, active = inhibitory potential greater than 30%
Experimental: Similar to the migration assays, the inhibition activity of the peptide in cellular adhesion was assessed using the RT-CIM technology. In this case, 25,000 cells/well were plated in 16 wells E-plates (Roche, Basel Switzerland) in the presence or absence of the peptide. The adhesion was monitored over time (3 hours) by measuring changes in the electrical impedance, which is a direct measure of the cells adhering on the electrodes. […] Assays were performed in at least two independent replicates and each replicate was performed using two experimental duplicates.

Molecule | Tube formation Inhibition (100 uM) (HUVEC [1]) | Activity in Tube formation (HUVEC [1]) | Migration Inhibition (50 uM) (HUVEC [2]) | Activity in Migration (HUVEC [2]) | inhibition of migration (HUVEC [2]; concentration not given) | IC50 (HUVEC [3]) | Activity in Proliferation (HUVEC [3]) | Proliferation Inhibition (IC50 in uM) (HUVEC [3]) | Adhesion Inhibition (100 uM) (HUVEC [4]) | Activity in Adhesion (HUVEC [4]) | inhibition of adhesion (HUVEC [4]; concentration not given) | Migration Inhibition (5 uM) (HUVEC [2]) | inhibition of proliferation (HUVEC [3]) | inhibition of tube formation (HUVEC [1]) | migration inhibition (HUVEC [2]; concentration not given) | adhesion inhibition (FIG. 16) (HUVEC [4]; concentration not given)
CCCC[C@H](NC(=O)[C@H](Cc1ccccc1)NC(=O)[C@@H]1CCCN1C(=O)[C@H](CCCC)NC(=O)[C@@H](NC(=O)[C@H](CO)NC(=O)[C@H](Cc1ccccc1)NC(=O)[C@H](CCCNC(=N)N)NC(=O)[C@H](CCCNC(=N)N)NC(=O)[C@@H](N)CC(C)C)[C@@H](C)O)C(=O)N[C@@H](Cc1ccccc1)C(=O)O [SP2014, LRRFSTNlePFNleF-OH] (H-LRRFST[Nle]PF[Nle]F-OH; N-terminus assumed) | Inactive | No | Inactive | No | absence of activity | > 100 µM | No | Inactive | 2.9% | No | absence of activity |  |  |  |  | 
C=CC[C@H](NC(=O)[C@H](Cc1ccccc1)NC(=O)[C@H](CCSC)NC(=O)[C@H](Cc1ccccc1)NC(=O)[C@@H]1CCCN1C(=O)[C@H](CCSC)NC(=O)[C@@H](NC(=O)[C@H](CO)NC(=O)[C@H](Cc1ccccc1)NC(=O)[C@H](CCCNC(=N)N)NC(=O)[C@H](CCCNC(=N)N)NC(=O)[C@@H](N)CC(C)C)[C@@H](C)O)C(=O)N[C@@H](CC(N)=O)C(=O)N[C@H](C(=O)N[C@@H](CC(N)=O)C(=O)N[C@@H](CC(N)=O)C(=O)N[C@H](C(=O)N[C@@H](CC=C)C(=O)N[C@@H](CC(N)=O)C(=O)N[C@@H](Cc1ccccc1)C(N)=O)C(C)C)[C@@H](C)CC [SP2026, LRRFSTMPFMF(AllyGly)NINNV(AllyGly)NF] (H-LRRFSTMPFMF[AllylGly]NINNV[AllylGly]NF-NH2; N-terminus assumed) | Complete | Yes |  | Yes |  | 8.23 µM | Yes |  | 96.61% | Yes |  | 11.43% | not affected |  |  | 
CC[C@H](NC(=O)[C@H](Cc1ccccc1)NC(=O)[C@H](CCSC)NC(=O)[C@H](Cc1ccccc1)NC(=O)[C@@H]1CCCN1C(=O)[C@H](CCSC)NC(=O)[C@@H](NC(=O)[C@H](CO)NC(=O)[C@H](Cc1ccccc1)NC(=O)[C@H](CCCNC(=N)N)NC(=O)[C@H](CCCNC(=N)N)NC(=O)[C@@H](N)CC(C)C)[C@@H](C)O)C(=O)N[C@@H](CC(N)=O)C(=O)N[C@H](C(=O)N[C@@H](CC(N)=O)C(=O)N[C@@H](CC(N)=O)C(N)=O)[C@@H](C)CC [SP2028, LRRFSTMPFMFAbuNINN] (H-LRRFSTMPFMF[Abu]NINN-NH2; N-terminus assumed) | Complete | Yes | 48.87% | Yes |  |  | Yes |  | 96.8% | Yes |  |  |  | Inhibition of tube formation |  | 
FTNINNVTN-NH2 [SP2031, FTNINNVTN] | Active | Yes | 10.21% | Yes |  |  | Yes |  | 85% | Yes |  |  | restored activity |  | > 50% | > 80
LNRFSTMPF [SP2013, LNRFSTMPF] | Inactive | No | Inactive | No | absence of activity | > 100 µM | No | Inactive | 0.3% | No | absence of activity |  |  |  |  | 
LRRFSTMP-NH2 [SP2008] | Inactive | No | Inactive | No | absence of activity |  | No | Inactive | −0.1% | No | absence of activity |  |  |  |  | 
LRRFSTMPFMF [SP2004, LRRFSTMPFMF] | Inactive | No |  | No |  | > 100 µM | No | Inactive |  | No |  |  | inactive |  |  | 
LRRFSTMPFMFANINNVANF-NH2 [SP2023] | Complete | Yes |  | Yes |  |  | Yes |  | 96.29% | Yes |  | 31.18% |  |  |  | 
LRRFSTMPFMFININN-NH2 [SP2033, LRRFSTMPFMFININN] | Complete | Yes | 42.01% | Yes |  |  | Yes |  | 94% | Yes |  |  | potent activity in inhibiting proliferation | Inhibition of tube formation |  | 
LRRFSTMPFMFSNINNVSNF-NH2 [SP2022] |  | Yes |  | Yes |  |  | Yes |  | 96.49% | Yes |  |  | not affected |  |  | 
LRRFSTMPFMFTNINN-NH2 [SP2032, LRRFSTMPFMFTNINN] | Complete | Yes | 32.45% | Yes |  |  | Yes |  | 63% | Yes |  |  | potent activity in inhibiting proliferation | Inhibition of tube formation |  | 
LRRFSTMPFMFTNINNVTNF-NH2 [SP2025] | Complete | Yes |  | Yes |  |  | Yes |  | 96.48% | Yes |  | 18.19% | not affected |  |  | 
LRRFSTMPFMFTNINV-NH2 [SP2029, LRRFSTMPFMFTNINV] | Complete | Yes | 54.13% | Yes |  |  | Yes |  | 93.75% | Yes |  |  | potent activity in inhibiting proliferation | Inhibition of tube formation |  | 
LRRFSTMPFMFVNINNVVNF-NH2 [SP2027] | Complete | Yes |  | Yes |  |  | Yes |  | 96.75% | Yes |  | 27.02% | not affected |  |  | 
